# Measured values taken from patent US20250009632A1, “HEIGHT-ADJUSTABLE SPRINKLER” (BTGIN CO., LTD., priority 2021, published 2025).
# Key:
# S. mutans [1] = experiment: Amount of organic acid produced in dental plaque (HPLC of S. mutans culture medium); format: cell-based, Streptococcus mutans; details: 48 h culture, high concentration (100 μg/ml)
# Experimental: • 1) To a brain heart infusion (BHI) broth (2 ml), 20 μl of each of sample extracts by concentrations in Table 3 below was added. For a control group, sterilized water was used instead of sample extracts. • 2) S. mutans was inoculated to reach 10^5-10^6. • 3) The cells were cultured in an incubator at 37° C. for 48 hours. • 4) The amount of the acid secreted in the medium was measured using HPLC.
# **HPLC: analyzed by the joint equipment research lab of Dankook University Industry-Academia Cooperation (Citric, pyruvic, succinic, lactic, formic, acetic, propionic, isobutyric, butyric, and isovaleric acid).
# S. mutans strain was inoculated into 2 ml of the brain heart infusion (BHI) liquid medium at a concentration of 1×10^5 CFU/ml, and a predetermined concentration of each sample was injected, followed by culturing for 48 hours. The culture was centrifuged at 13,000 rpm for 5 minutes, and then the supernatant was transferred to a new tube and filtered with a 0.45 μm syringe filter. Thereafter, HPLC analysis was performed. HPLC analysis conditions are as follows. Mobile phase (Isocratic elution): 10 mM potassium phosphate monobasic (pH 3, a phosphoric acid salt)/MeOH=(98/2), Column oven Temp.: 30° C., flow rate: 1 ml/min, wavelength: 220 nm, and injection amount: 10 μl
# S. mutans [2] = experiment: Analysis of dental plaque reduction (S. mutans attached to glass tube wall, absorbance at 550 nm); format: cell-based, Streptococcus mutans
# Experimental: • 1) A brain heart infusion (BHI) broth (5 ml) containing 1% sucrose was added in 50 ml glass tube, and 50 μl of each of sample extracts by concentrations shown in Table 2 below was added. For a control group, sterilized water was used instead of sample extracts. • 2) S. mutans was inoculated to reach 10^5. • 3) The glass tube was cultured statically in an incubator at 37° C. for 24 hours while tilted at 30°. • 4) After culturing, 5 ml of 0.5 M NaOH solution was added to suspend the cells attached to the wall. • 5) One milliliter of suspension was taken and measured for absorbance at 550 nm. S. mutans strain was cultured statically for 24 hours after inoculation while tilted at 30°. When the culture medium was carefully poured out after the static culture, it was observed that bacteria were attached to the wall of the glass tube (FIG. 1, red arrow). Thereafter, the bacteria were suspended by addition of 0.5 M NaOH, and 1 ml of the suspended solution was measured for absorbance at 550 nm. As a result, there was a reduction in dental plaque from a BTEX-K concentration of 50 μg/ml.
smiles,measurement,setting,value
CC(C)=CCC[C@](C)(O[C@@H]1O[C@H](CO)[C@@H](O)[C@H](O)[C@H]1O)[C@H]1CC[C@]2(C)[C@@H]1[C@H](O)C[C@@H]1[C@@]3(C)CC[C@H](O)C(C)(C)[C@@H]3CC[C@]12C [ginsenoside compound K],reduction in lactic acid content compared to the control group,"S. mutans [1]; HPLC, p<0.0001",approximately 2 fold
same,HPLC peak at retention time of around 4.6 minutes (lactic acid),S. mutans [1]; vs control,decreased
same,growth of S. mutans strain,"S. mutans [2]; at 100 μg/ml, as seen in the dental plaque reduction experiment",inhibited
same,concentration at which dental plaque reduction was observed,"S. mutans [2]; summary statement, absorbance at 550 nm",20 µg/mL
